# pEC50: −log10 of the molar value. Where two headings read alike, the source gives them in different places.
# Experiments:
# SARS-CoV-2 [1] = assay: Virus titer reduction assay; assay type: cell-based; settings: for SI: SARS-CoV-2 EC50 and Vero cells CC50; for EC50 / pEC50: Severe acute respiratory syndrome coronavirus 2; for EC50: SARS-CoV-2 in Vero cells, normalized log-transformed response, read-out: App. EC50, calculated from log-transformed viral titers (converted); for pEC50: Vero cells, MOI 0.1, 48 h p.i., normal lighting, 50% reduction in viral titer, read-out: SARS-CoV-2 EC50
# [2] = Cytotoxicity assay (Cell Counting Kit-8); assay type: cell-based; settings: African green monkey, Vero cells, confluent monolayer; 48 h at 37 °C in the dark; compounds 0–10 µM
# Experimental: Vero cells were cultured for 24 h in 96-well plates to form a confluent monolayer, and then were treated with the tested compounds at concentrations of 0–10 µM. After 48 h of cultivation in the dark at 37 °C under 5% CO2, the cell culture medium was aspirated. The potential cytotoxicity of the tested derivatives was determined based on cell viability using Cell Counting Kit-8 (Dojindo Molecular Technologies, Munich, Germany) according to the manufacturer’s instructions (Figure 5A).
# [3] = Singlet oxygen generation quantum yield (SOSG fluorescence); assay type: physicochemical; settings: in methanol, illumination 430–450 nm, 5.5 mW/cm^2, reference PS C1T11
# Experimental: The ROS generation rate was estimated using the spectrofluorimetric method, based on the fluorescense changes of Singlet Oxigen Sensor Green (SOSG®, Lumiprobe, Cockeysville, MD, USA) in methanol solution. Oxidation of SOSG by singlet oxygen results in peroxide formation enhancing SOSG fluorescence.
# Spectrophotometric measurements were performed in a Qpod 2e thermostated cuvette holder (Quantum Northwest, Liberty Lake, WA, USA) at 25 °C and with magnetic stirring (500 rpm). Absorption spectra were recorded using a MayaPro spectrophotometer (Ocean Optics, Orlando, FL, USA) and a stabilized white light source with a SLS201L tungsten lamp (Thorlabs, Newton, NJ, USA). The fluorescence of SOSG was measured with a Flame CCD spectrometer (Ocean Optics, Orlando, FL, USA) in StripChart mode (530 nm), excitation of the SOSG fluorescence was carried out with a PLS-510 LED laser (InTop, St. Petersburg, Russia) in CW mode at the wavelength of 510 nm.
# To study photosensitized ^1O2 generation, we used a white MCWHLP1 LED (Thorlabs, USA) with filters to limit the radiation to the 430–450 nm range (5.5 mW/cm^2). Illumination was uniform over the entire volume of the cuvette, to prevent artifacts associated with the diffusion of non-reacted components from entering into the illuminated volume of the cuvette. Illumination was performed in pulsed mode, with 1 s of illumination followed by 5 s of dark adaptation, during which the fluorescence spectrum of the photosensitizer-SOSG solution was recorded.
# Singlet oxygen generation quantum yield for compounds 3a–3f in methanol was calculated according to Equation (1):(1) φΔ=φΔ0∗r/r^0(1−10^−A^0)/(1−10^−A), where r is the rate of SOSG fluorescence increase in solution of the photosensitizer (PS), A is the PS absorbance in the region of illumination, and index 0 represents reference PS (we used perylene compound C1T11 [65] with φΔ0=0.59 in methanol).
# PS cells = assay: Confocal microscopy of penetration into cellular membranes; assay type: cell-based, porcine; settings: 10 µM
# Experimental: Confocal microscopy was used to study the penetration of compound 3a into cellular membranes. PS cells were treated with 3a (10 µM) in a µ-Slide 8 Well (IbidiGmbH, Gräfelfing, Germany) in the dark for 60 min at 37 °C. The samples were analyzed for fluorescent signal distribution and intensity using a Leica SP8 confocal microscope (Leica, Wetzlar, Germany) as described previously.
# [4] = Cytotoxicity to CRFK cells under normal lighting; assay type: cell-based; settings: cat (Felis catus), CRFK cells (kidney cortex), confluent monolayer
# Experimental: Furthermore, we investigated the mechanism of antiviral activity of perylenylethynylphenols using FIPV, another member of the Coronaviridae family, which is an important veterinary pathogen.
# To determine the light-induced cytotoxicity of the compounds, CRFK cells were cultured in 96-well plates for 24 h to form a confluent monolayer and then treated with the tested compounds at concentrations ranging from 0 to 10 µM in daylight. Subsequently, cells treated with the compounds were irradiated with LEDs (465–480 nm, 30 mW/cm^2) for 10 min at RT (Figure 7A, top panel). As a negative control, CRFK cells were treated with the compounds in daylight and then incubated in the dark at RT for 10 min (Figure 7A, bottom panel). Subsequently, both irradiated and non-irradiated cell monolayers were incubated for 48 h in the dark at 37 °C. After incubation, the potential photocytotoxicity of the compounds was determined using Cell Counting Kit-8 (Dojindo Molecular Technologies, Munich, Germany) according to the manufacturer’s instructions.
# FIPV [5] = assay: Anti-FIPV activity in CRFK cells (plaque assay); assay type: cell-based, feline infectious peritonitis virus; settings: Alphacoronavirus 1, normal lighting (preparation in daylight, cultivation in the dark)
# FIPV [6] = assay: Photodynamic inactivation of FIPV virions; assay type: cell-based, feline infectious peritonitis virus
# Experimental: Considering that perylenylethynylphenols are potent ^1O2 photogenerators, we investigated their coronavirus inactivation activity after the irradiation of compound-pretreated FIPV with blue light (465–480 nm, with an approximate power density of 30 mW/cm^2; note: the 465–480 nm wavelength is close to the excitation maxima of perylenylethynylphenols). In this experiment, (i) compound 3a and the virus were mixed in daylight and irradiated with blue light for 10 min (Figure 7D, top panel), or (ii) the compound and virus were mixed in daylight and incubated in the dark for 10 min (Figure 7D, medium panel). Then, both samples (irradiated and non-irradiated) were incubated for 1 h at 37 °C in the dark, and the viability of FIPV was determined by a plaque assay. […] We speculate that the observed enhancement of antiviral (virus inactivation) activity of 3a is due to increased ^1O2 photogeneration during sample irradiation.
# To completely eliminate the influence of daylight on the anti-FIPV activity of perylenylethynylphenols, we performed a parallel experiment in a dark room. In this experiment, all manipulations, including sample preparation and plaque assays, were performed under red light (624 ± 20 nm) (Figure 7D, bottom panel).
# Virus in DMEM (titer of 10^6 PFU/mL) was mixed with 3a (0–10 µM) in a microtiter plate in daylight and irradiated for 10 min at RT with LEDs (465–480 nm) at an approximate power density of 30 mW/cm^2 (Figure 7D, top panel). As a negative control, the virus was mixed with 3a (0–10 µM) in daylight and incubated with the compound for 10 min in the dark at RT (Figure 7D, middle panel). Subsequently, both irradiated and non-irradiated virus samples were incubated in the dark at 37 °C for an additional 60 min. Viral titers were determined by plaque assays (also in daylight). […] The virus sample was mixed with 3a (0–10 µM), incubated at 37 °C for 60 min, and the viability of the virus was assessed by plaque assays (Figure 7D, bottom panel). […]
# [7] = Interaction with liposomes (steady-state fluorescence); assay type: physicochemical; settings: 10 µM in PBS; 520 nm; after the complete incubation period (3500 s)
# Experimental: The affinity of 3a to lipid membranes was further confirmed using a liposomal (protein-free) membrane model system (Figure 6D,E). […] The kinetics of liposome penetration of 3a were measured as the steady-state fluorescence response at 520 nm, which reached maximal intensity of about 4 × 10^5 CPE after the complete incubation period (3500 s) (Figure 6E).
# The samples’ steady-state fluorescence characteristics were measured in L-format using a Chronos DFD Fluorescence spectrometer (ISS, Baltimore, MD, USA) equipped with a 300 W Cermax xenon arc lamp (ISS, Baltimore, MD, USA), a concave holographic grating monochromator, and a PMT detector. The required amount of each sample was diluted in DMSO and measured in a 1-cm quartz cuvette, at a constant temperature of 25 °C. The resulting data were evaluated using Vinci software version 2 (ISS, Baltimore, MD, USA) and correlated to the utilized optical configuration.
# The kinetics of the incorporation of compounds into liposome membrane models were determined using steady-state fluorescence spectroscopy at a constant excitation and emission wavelength, according to the corresponding sample excitation and emission maxima. We added 50 μL of LNP suspension to 10 µM of the analyte in PBS and monitored the increase in fluorescence intensity over the time range […].
# SARS-CoV-2 [8] = assay: Virucidal (virus-inactivating) activity, plaque assay; assay type: cell-based; settings: 10 µM; 120 min pre-incubation in the dark; starting titers 10^4, 10^6 and 10^7 PFU/mL
# [9] = design: method as in PMID 37339718; settings: in methanol; cited from earlier work
# [10] = Light-induced cytotoxicity (photocytotoxicity); assay type: cell-based; settings: cat (Felis catus), CRFK cells, confluent monolayer; blue light 465–480 nm, 30 mW/cm^2, 10 min; then 48 h incubation; read-out: Cell viability of irradiated CRFK cells
SMILES,SI (SARS-CoV-2 [1]),EC50 (SARS-CoV-2 [1]) [nM],pEC50 (SARS-CoV-2 [1]),CC50 at 48 h [2] [nM],"ϕΔ(1O2), singlet oxygen generation quantum yield [3]",Cytotoxicity or morphological abnormalities in PS cells (PS cells),CC50 at 48 h [4] [nM],pEC50 (FIPV [5]),"anti-FIPV activity under red light (FIPV [6]; dark room, all manipulations under red light (624 ± 20 nm), up to 10 µM)","anti-FIPV (virus inactivation) activity after blue-light irradiation (FIPV [6]; mixed in daylight, blue light 465–480 nm, 30 mW/cm^2, 10 min, versus non-irradiated sample)","FIPV-inactivation activity in the non-irradiated sample (FIPV [6]; mixed in daylight, incubated in the dark 10 min, then 1 h at 37 °C)",Maximal steady-state fluorescence intensity on liposome penetration [7],Decrease in SARS-CoV-2 viral titer compared with control (SARS-CoV-2 [8]),"φΔ0, singlet oxygen generation quantum yield of the reference PS [9]",viability at 48 h [10] [%]
"Oc1ccc(C#Cc2ccc3c4cccc5cccc(c6cccc2c63)c54)cc1Br [Compound 3c, 4-(Perylen-3-ylethynyl)-2-bromophenol]",>44,1100,6.64,> 10000,0.282,,,,,,,,,,
"Oc1ccc(C#Cc2cc3cccc4c5cccc6cccc(c(c2)c34)c65)cc1Br [Compound 3f, 4-(Perylen-2-ylethynyl)-2-bromophenol]",>19,2680,6.28,> 10000,0.332,,,,,,,,,,
"Oc1ccc(C#Cc2cc3cccc4c5cccc6cccc(c(c2)c34)c65)cc1 [Compound 3d, 4-(Perylen-2-ylethynyl)phenol]",>16,2220,6.21,> 10000,0.297,,,,,,,,,,
"Oc1ccc(C#Cc2ccc3c4cccc5cccc(c6cccc2c63)c54)cc1 [Compound 3a, 4-(Perylen-3-ylethynyl)phenol]",>83,1790,6.92,> 10000,0.422,no signs of cytotoxicity or morphological abnormalities,> 10000,6.71,completely disappeared,significant increase in anti-FIPV activity,some FIPV-inactivation activity,about 4 × 10^5 CPE,more than two orders of magnitude,,
O=C(O)c1ccc(-c2ccc3c4cccc5cccc(c6cccc2c63)c54)s1 [Compound C1T11],,,,,,,,,,,,,,0.59,
"Oc1cccc(C#Cc2ccc3c4cccc5cccc(c6cccc2c63)c54)c1 [Compound 3b, 3-(Perylen-3-ylethynyl)phenol]",>196,506,7.29,> 10000,0.451,,,,,,,,,,> 100
"Oc1cccc(C#Cc2cc3cccc4c5cccc6cccc(c(c2)c34)c65)c1 [Compound 3e, 3-(Perylen-2-ylethynyl)phenol]",>29,1580,6.46,> 10000,0.460,,,,,,,,,,> 100

# From publication PMC10488391, “Membrane-Targeting Perylenylethynylphenols Inactivate Medically Important Coronaviruses via the Singlet Oxygen Photogeneration Mechanism” (Molecules, 2023)
